Data taken from patent US20110071094A1, “(D)-ALLOSE INDUCING PROGRAMMED CELL DEATH IN HORMONE REFRACTORY PROSTATE CANCER LINES” (INDUSTRY-ACADEMIC COOPERATION FOUDATION, GYEONGSANG …, priority 2008, published 2011).

How the values were obtained:
PrEC cell line = assay: Cell viability / cell growth, MTT assay; format: cell-based; settings: human NPE cell line PrEC, 0-40 mM
Protocol: DU145 (human HRPC cell line, derived from a patient with brain metastasis) and PrEC (human normal prostate epithelial cell line) cell lines were obtained from Korea Cell Line Bank (KCLB, Seoul, South Korea). DU145 and PrEC cell lines were grown in triplicate culture plates containing RPMI-1640 (HyClone, Logan, Utah, USA) and Dulbecco's Modified Eagle's Medium (HyClone, Logan, Utah, USA) respectively, and kept in a humidified atmosphere containing 5% CO2 at 37° C. for 72 h. The media were supplemented with 10% heat-inactivated fetal bovine serum (HyClone, Logan, Utah, USA), 1% antibio-antimicotic solution containing 10,000 units/ml of penicillin and 10 mg/ml of streptomycin (HyClone, Logan, Utah, USA), HEPES, sodium bicarbonate, p-aminobenzoic acid and insulin (complete culture media). […]
The logarithmic growth phase of DU145 and PrEC cell lines were taken for growth assay using 3-[4,5-dimethylthiazol-2-yl]-2,5-diphenyl tetrazolium bromide (MTT). […] After incubation for the specified time at 37° C. in a humidified 5% CO2 incubator, cell viability was determined. […] To achieve solubilization of formazan crystal formed in viable cells, DMSO was added to each well, and the absorbance was recorded on a microplate reader at 595 nm wavelength. The effect of sugars on growth inhibition was assessed as percent cell viability where control cells were taken as 100% viable.

DU145 cell line [1] = assay: Quantification of apoptosis by annexin-V/PI flow cytometry; format: cell-based, human
Protocol: The Annexin-V-FLUOS Staining Kit (Roche Diagnostics GmbH, Mannheim, Germany) was used for the detection and quantification of the apoptotic cells. This kit uses a dual-staining protocol in which the apoptotic cells are stained with annexin-V (green fluorescence) and the necrotic cells are stained with propidium iodide (PI, red fluorescence). Briefly, DU145 cell line was grown at a density of 1×10^6 cells in triplicate culture plates and then treated with D-allose (0, 20 and 40 mM) for 48 and 72 h. The cells were treated with trypsin and harvested with PBS and processed for labeling with annexin-V and PI by the use of the kit according to the manufacturer's protocol. The fluorescence was measured by flow cytometric analysis, performed on a FACSCalibur (Becton Dickinson, San Jose, Calif., USA) using 488 nm excitation and a 515 nm band pass filter for fluorescein detection and a filter [600 nm for PI detection (FL1: Annexin-V-FLUOS; FL2: PI). Further, apoptotic indices were measured by analysis of fragmented or scattered nuclei and condensed chromosome as the stringent morphological criteria of apoptosis, detectable by confocal microscopy on cells stained with DNA-intercalating dye […] (DAPI). For this purpose, DU145 and PrEC cell lines were exposed to 0, 20 and 40 mM of D-allose for up to 72 h, stained with DAPI (1 μg/ml in methanol), mounted with Prolong Antifade reagent (Molecular Probes, Eugene, Oreg., USA), and images were acquired by use of a confocal laser scanning microscope (Fluoview FV 1000, Olympus, Japan). The numbers of apoptotic nuclei per 100 cells were counted from the five high power fields/slide and apoptotic indices were expressed as a percentage of the untreated controls in each cell line, considering the value as 100%. DU145 cell line was also treated with 0-40 mM of D-glucose for determination of apoptotic indices as mentioned above.

DU145 cell line [2] = assay: Fura-2 measurement of [Ca^2+]c; format: cell-based, human; settings: DU145, 20 and 40 mM, 48 h
Protocol: [Ca^2+]c was measured by fluorescent indicator fura-2 acetoxymethyl ester (fura-2 AM) as described in Malgaroli A et al., J. Cell. Biol. 105:2145-2155, 1987. Briefly, DU145 cell line (1×10^6 cells in triplicate culture plates) was exposed to 0, 20 and 40 mM of D-allose for 48 and 72 h and then incubated with serum-free culture media containing 5 μM of fura-2AM at 37° C. in dark for another 1 h. The cells were washed twice with Locke's solution (pH 7.3) and the fura-2 fluorescence signals of [Ca^2+]c were measured by luminescence spectrophotometer (LS 50B, Perkin Elmer, Boston, Mass., USA) using 340 and 380 nm as excitation wavelengths (λex), and 510 nm as emission wavelength (λem). […] The slides were mounted with Prolong Antifade reagent (Molecular Probes, Eugene, Oreg., USA), and images (JC-1, green) were acquired by use of a fluorescence microscope (Axioplan 2, Carl Zeiss, Germany).

In the case of `O=C[C@H](O)[C@H](O)[C@H](O)[C@H](O)CO` [D-allose], the “effect on growth of PrEC cell line” value (PrEC cell line) is reported as “no remarkable effect”, the “apoptotic cells (annexin-V/PI)” value (DU145 cell line [1]; DU145, 20 mM, 48 h, untreated control 1.2%) is reported as 5.1% and the “apoptotic cells (annexin-V/PI)” value (DU145 cell line [1]; DU145, 20 mM, untreated control 2.3%) is reported as 11.9%. For the same molecule, the “apoptotic cells (annexin-V/PI)” value (DU145 cell line [1]; DU145, 40 mM, 48 h, untreated control 1.2%) was 8.7%, the “apoptotic cells (annexin-V/PI)” value (DU145 cell line [1]; DU145, 40 mM, untreated control 2.3%) was 23.5% and the “[Ca^2+]c” value (DU145 cell line [2]) was “remarkably elevated”.
